{"source": "ChEMBL document CHEMBL3091403", "about": "“Desmethyl Macrolides: Synthesis and Evaluation of 4,8,10-Tridesmethyl Cethromycin” (2013)", "format_in_all_cases": "functional", "key": {"[1]": {"system": "Staphylococcus aureus", "assay": "Antibacterial activity against Staphylococcus aureus ATCC 33591 harboring ribosomal ermA mutant"}, "[2]": {"system": "Escherichia coli", "assay": "Antibacterial activity against Escherichia coli DK/2058G harboring ribosomal A2058G mutant"}, "[3]": {"system": "Staphylococcus aureus", "assay": "Antibacterial activity against Staphylococcus aureus UCN14 harboring ribosomal A2058U mutant"}, "[4]": {"system": "Escherichia coli", "assay": "Antibacterial activity against wild-type Escherichia coli DK/pKK3535"}, "[5]": {"system": "Escherichia coli", "assay": "Antibacterial activity against Escherichia coli SQ171/2058G harboring ribosomal A2058G mutant"}}, "data": [{"smiles": "CC[C@H]1OC(=O)[C@H](C)C(=O)C[C@@H](O[C@@H]2O[C@H](C)C[C@H](N(C)C)[C@H]2O)[C@](C)(OC/C=C/c2cnc3ccccc3c2)CCC(=O)C[C@H]2NC(=O)O[C@@]21C", "values": [{"measurement": "MIC", "setting": "[1]", "value": "> 64", "unit": "µg/mL"}, {"measurement": "MIC", "setting": "[2]", "value": 1, "unit": "µg/mL"}, {"measurement": "MIC", "setting": "[3]", "value": "> 256", "unit": "µg/mL"}, {"measurement": "MIC", "setting": "[4]", "value": 2, "unit": "µg/mL"}, {"measurement": "MIC", "setting": "[5]", "value": "> 256", "unit": "µg/mL"}]}]}
